Patent US11406624B2, “Pyrazolopyridine compounds and uses thereof” (Incyte Corporation, priority 2017, dated 2022)

The compounds below were run against HPK1 (Homo sapiens (Human), UniProt Q92918) (assay: HPK1 Kinase Binding Assay). Conditions: LanthaScreen tracer 222 binding, active HPK1, one hour incubation at 25° C.
HPK1, sequence (Q92918 1-346): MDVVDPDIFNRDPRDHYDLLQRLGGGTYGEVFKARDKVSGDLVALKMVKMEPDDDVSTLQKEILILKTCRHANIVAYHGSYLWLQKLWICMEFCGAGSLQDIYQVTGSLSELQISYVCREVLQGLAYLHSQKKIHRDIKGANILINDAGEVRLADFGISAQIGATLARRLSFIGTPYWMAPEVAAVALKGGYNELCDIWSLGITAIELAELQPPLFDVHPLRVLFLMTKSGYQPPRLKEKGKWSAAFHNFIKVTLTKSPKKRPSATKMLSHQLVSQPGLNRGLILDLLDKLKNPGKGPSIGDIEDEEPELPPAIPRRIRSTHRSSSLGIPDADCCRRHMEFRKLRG
Protocol: A stock solution of 1 mM test compound was prepared in DMSO. The compound plate was prepared by 3-fold and 11-point serial dilutions. 0.1 μL of the compound in DMSO was transferred from the compound plate to the white 384 well polystyrene plates. The assay buffer contained 50 mM HEPES, pH 7.5, 0.01% Tween-20, 5 mM MgCl2, 0.01% BSA, and 5 mM DTT. 5 μl of 4 nM active HPK1 (SignalChem M23-11G) prepared in the buffer was added to the plate. The enzyme concentration given was based on the given stock concentration reported by the vender. 5 μl of 18 nM tracer 222 (ThermoFisher PV6121) and 4 nM LanthaScreen Eu-Anti GST antibody (ThermoFisher PV5595) were added. After one hour incubation at 25° C., the plates were read on a PHERAstar FS plate reader (BMG Labtech). Ki values were determined.
With `Cc1ccncc1-c1cc2c(NC(=O)c3ccc(N4CCOCC4)cc3)n[nH]c2cn1` [Example 1, N-(5-(4-methylpyridin-3-yl)-1H-pyrazolo[3,4-c]pyridin-3-yl)-4-morpholinobenzamide] the Ki was ≤ 100 nM. For `Cc1ccncc1-c1cc2c(NC(=O)c3ccc(N4CCN(C)CC4)cc3)n[nH]c2cn1` [Example 2, 4-(4-Methylpiperazin-1-yl)-N-(5-(4-methylpyridin-3-yl)-1H-pyrazolo[3,4-c]pyridin-3-yl)benzamide], the Ki was ≤ 100 nM. For `CCOC(=O)N1CCN(c2ccc(C(=O)Nc3n[nH]c4cnc(-c5cnccc5C)cc34)cc2)CC1` [Example 3, Ethyl 4-(4-(5-(4-methylpyridin-3-yl)-1H-pyrazolo[3,4-c]pyridin-3-ylcarbamoyl)phenyl)piperazine-1-carboxylate], the Ki was ≤ 100 nM. `COC1CCN(c2ccc(C(=O)Nc3n[nH]c4cnc(-c5cnccc5C)cc34)cc2)CC1` [Example 4, 4-(4-Methoxypiperidin-1-yl)-N-(5-(4-methylpyridin-3-yl)-1H-pyrazolo[3,4-c]pyridin-3-yl)benzamide] was tested, and the Ki was ≤ 100 nM. In the case of `Cc1ccncc1-c1cc2c(NC(=O)c3ccc(N4CCCC(N)C4)cc3)n[nH]c2cn1` (stereo not shown) [Example 5, 4-(3-Aminopiperidin-1-yl)-N-(5-(4-methylpyridin-3-yl)-1H-pyrazolo[3,4-c]pyridin-3-yl)benzamide], the Ki is reported as ≤ 100 nM. In the case of `Cc1c(-c2cc3c(NC(=O)c4ccc(N5CCOCC5)cc4)n[nH]c3cn2)cnn1C` [Example 6, N-(5-(1,5-dimethyl-1H-pyrazol-4-yl)-1H-pyrazolo[3,4-c]pyridin-3-yl)-4-morpholinobenzamide], the Ki is reported as ≤ 100 nM. In the case of `Cc1c(-c2cc3c(NC(=O)c4ccc(N5CCN(C)CC5)cc4)n[nH]c3cn2)cnn1C` [Example 7, N-(5-(1,5-dimethyl-1H-pyrazol-4-yl)-1H-pyrazolo[3,4-c]pyridin-3-yl)-4-(4-methylpiperazin-1-yl)benzamide], the Ki is reported as ≤ 100 nM. `CCOC(=O)N1CCN(c2ccc(C(=O)Nc3n[nH]c4cnc(-c5cnn(C)c5C)cc34)cc2)CC1` [Example 8, Ethyl 4-(4-(5-(1,5-dimethyl-1H-pyrazol-4-yl)-1H-pyrazolo[3,4-c]pyridin-3-ylcarbamoyl)phenyl)piperazine-1-carboxylate] was tested, and the Ki was ≤ 100 nM. In the case of `COC1CCN(c2ccc(C(=O)Nc3n[nH]c4cnc(-c5cnn(C)c5C)cc34)cc2)CC1` [Example 9, N-(5-(1,5-dimethyl-1H-pyrazol-4-yl)-1H-pyrazolo[3,4-c]pyridin-3-yl)-4-(4-methoxypiperidin-1-yl)benzamide], the Ki is reported as ≤ 100 nM. `COC1CCCN(c2ccc(C(=O)Nc3n[nH]c4cnc(-c5cnn(C)c5C)cc34)cc2)C1` (stereo not shown) [Example 10, N-(5-(1,5-dimethyl-1H-pyrazol-4-yl)-1H-pyrazolo[3,4-c]pyridin-3-yl)-4-(3-methoxypiperidin-1-yl)benzamide] was tested, and the Ki was ≤ 100 nM. For `CCCNc1ccc(C(=O)Nc2n[nH]c3cnc(-c4cnn(C)c4C)cc23)cc1` [Example 11, N-(5-(1,5-dimethyl-1H-pyrazol-4-yl)-1H-pyrazolo[3,4-c]pyridin-3-yl)-4-(propylamino)benzamide], the Ki was ≤ 100 nM. For `COCCNc1ccc(C(=O)Nc2n[nH]c3cnc(-c4cnn(C)c4C)cc23)cc1` [Example 12, N-(5-(1,5-dimethyl-1H-pyrazol-4-yl)-1H-pyrazolo[3,4-c]pyridin-3-yl)-4-(2-methoxyethylamino)benzamide], the Ki was ≤ 100 nM. With `Cc1c(-c2cc3c(NC(=O)c4ccc(N5CCC(F)(F)C5)cc4)n[nH]c3cn2)cnn1C` [Example 13, 4-(3,3-Difluoropyrrolidin-1-yl)-N-(5-(1,5-dimethyl-1H-pyrazol-4-yl)-1H-pyrazolo[3,4-c]pyridin-3-yl)benzamide] the Ki was ≤ 100 nM. `COc1ccncc1-c1cc2c(NC(=O)c3ccc(N4CCN(C)CC4)cc3)n[nH]c2cn1` [Example 14, N-(5-(4-methoxypyridin-3-yl)-1H-pyrazolo[3,4-c]pyridin-3-yl)-4-(4-methylpiperazin-1-yl)benzamide] was tested, and the Ki was ≤ 100 nM. For `Cc1ccncc1-c1cc2c(C(=O)Nc3ccc(N4CCN(C)CC4)cc3)n[nH]c2cn1` [Example 15, N-(4-(4-methylpiperazin-1-yl)phenyl)-5-(4-methylpyridin-3-yl)-1H-pyrazolo[3,4-c]pyridine-3-carboxamide], the Ki was ≤ 100 nM. In the case of `COc1ccncc1-c1cc2c(C(=O)Nc3ccc(N4CCN(C)CC4)cc3)n[nH]c2cn1` [Example 16, 5-(4-Methoxypyridin-3-yl)-N-(4-(4-methylpiperazin-1-yl)phenyl)-1H-pyrazolo[3,4-c]pyridine-3-carboxamide], the Ki is reported as ≤ 100 nM.
